The values below come from ChEMBL document CHEMBL5726851, “2-oxo-imidazopyridines as reversible BTK inhibitors and uses thereof” (2019).

The target in this assay is Tyrosine-protein kinase BTK (Homo sapiens, UniProt Q06187). The experiment in a line: Microfluidic Off-Chip Mobility Shift Assay Protocol for Potency Assessment Against BTK Enzyme: Briefly, 2.5× stocks of full-length human BTK (08-080) from CarnaBio USA, Inc., Natick, Mass., 1.6×ATP and appropriate kinKDR peptide substrate (FITC-AHA-[…]-NH2; developed in-house) were prepared in kinase reaction buffer consisting of 25 mM MgCl2, 0.015% Brij-35 (30%), 100 mM HEPES, pH 7.5, and 10 mM DTT. 5 uL of enzyme buffer and 7.5 uL of ATP/kinKDR peptide substrate mix were added to Matrix (#115304) 384-well, sterile, polypropylene plates (Thermo Fisher Scientific, Hudson, N.H.) with 125 nL of serially diluted compounds prepared in 100% DMSO, and incubated for 90 min. at 27° C. Following the incubation period, reactions were stopped by adding 60 uL stop buffer consisting of 100 mM HEPES, pH 7.5, 0.015% Brij-35 (30%), 0.277% Coating Reagent #3 (Caliper Life Sciences, Mountain View, Calif.), 5% DMSO. Stopped reactions were monitored at −2 PSI, −3000 V/−700 V in a LabChip 3000 plate reader from Caliper Life Sciences, a PerkinElmer Company (Hopkinton, Mass.), and the activity was measured by off-chip mobility shift assay measuring the charge/mass difference between substrate and product resulting from peptide phosphorilation. IC50 and efficacy were determined by plotting log [Inhibitor] vs. % Activity in GeneData Screener (Basel, Switzerland).

The structures appear in SMILES notation.

Chain of Tyrosine-protein kinase BTK (Q06187 whole entry): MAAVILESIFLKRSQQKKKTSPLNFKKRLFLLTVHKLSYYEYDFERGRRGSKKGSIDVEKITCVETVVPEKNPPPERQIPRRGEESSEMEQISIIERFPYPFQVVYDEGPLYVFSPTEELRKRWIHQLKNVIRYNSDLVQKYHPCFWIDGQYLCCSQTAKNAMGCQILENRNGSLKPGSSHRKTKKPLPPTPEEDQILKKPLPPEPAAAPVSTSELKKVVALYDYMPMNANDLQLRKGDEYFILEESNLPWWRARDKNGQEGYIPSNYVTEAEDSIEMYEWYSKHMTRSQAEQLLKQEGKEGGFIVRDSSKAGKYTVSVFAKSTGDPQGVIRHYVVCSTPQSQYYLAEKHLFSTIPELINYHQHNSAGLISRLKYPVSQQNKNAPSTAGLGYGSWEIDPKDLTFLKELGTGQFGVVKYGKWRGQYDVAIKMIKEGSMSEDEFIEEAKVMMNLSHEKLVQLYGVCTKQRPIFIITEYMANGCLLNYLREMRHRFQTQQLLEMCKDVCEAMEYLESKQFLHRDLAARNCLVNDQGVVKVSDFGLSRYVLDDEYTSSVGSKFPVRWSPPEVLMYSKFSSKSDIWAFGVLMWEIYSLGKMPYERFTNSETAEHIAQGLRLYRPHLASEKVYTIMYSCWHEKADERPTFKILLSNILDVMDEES

As a reminder, the IC50 is the concentration that gives 50% inhibition. As for `CC(C)(C)c1cc(C(=O)NC2CCCCc3cc(-c4ccnc5[nH]c(=O)[nH]c45)ccc32)on1` (stereo unspecified), the IC50 is under 0.01 µM.
